According to ChEMBL document CHEMBL4414604, “Anti-inflammatory Chalcone-Isoflavone Dimers and Chalcone Dimers from Caragana jubata” (J Nat Prod, 2019):

Experiments:
[1] = system: RAW264.7; assay: Antiinflammatory activity against mouse RAW264.7 cells assessed as inhibition of LPS-induced NO production incubated for 24 hrs by Griess reagent-based assay; assay type: functional, cell-based; conditions: RAW264.7, 24 h
[2] = system: RAW264.7; assay: Antiinflammatory activity against mouse RAW264.7 cells assessed as inhibition of LPS-induced IL-6 secretion after 24 hrs by ELISA; assay type: functional, cell-based; conditions: RAW264.7, 24 h
[3] = system: RAW264.7; assay: Cytotoxicity against mouse RAW264.7 cells assessed as reduction in cell viability at 50 uM by MTT assay; assay type: cell-based; conditions: raw264.7, 50 µM
[4] = system: RAW264.7; assay: Antiinflammatory activity against mouse RAW264.7 cells assessed as inhibition of LPS-induced TNF-alpha secretion after 24 hrs by ELISA; assay type: functional, cell-based; conditions: RAW264.7, 24 h

SMILES | IC50 [1] | IC50 [2] | Activity [3] | IC50 [4]
COc1ccc([C@H](/C=C/c2ccc(O)cc2)c2cc(-c3coc4cc(OC)cc(O)c4c3=O)c(O)cc2O)c(OC)c1 | 25.7 µM | > 50 µM | Non-Toxic | 11.4 µM
C[C@@H]1C[C@H]2[C@@H]3CCC4=CC(=O)C=C[C@]4(C)[C@@]3(F)[C@@H](O)C[C@]2(C)[C@@]1(O)C(=O)CO [DEXAMETHASONE] | 6 µM | 8.4 µM |  | 6.1 µM
C[C@H]1[C@H](C)CC[C@]2(C=O)CC[C@]3(C)C(=CC[C@@H]4[C@@]5(C)CC[C@H](O)C(C)(C)[C@@H]5CC[C@]43C)[C@H]12 [OLEANOALDEHYDE] | 18.6 µM |  | Non-Toxic | 
COc1ccc(/C=C/[C@H](c2ccc(O)cc2)c2cc(-c3coc4cc(OC)cc(O)c4c3=O)c(O)cc2O)c(OC)c1 | 4.1 µM | 32.6 µM | Non-Toxic | 20.5 µM
COc1ccc2c(c1)O[C@@H](c1ccc(OC)cc1OC)[C@H](Cc1ccc(O)cc1)[C@H]2/C=C/c1ccc(O)cc1 | 25.6 µM | 31.4 µM | Non-Toxic | 26.7 µM
COc1ccc2c(c1)O[C@@]1(/C=C/c3ccc(O)cc3)c3ccc(OC)cc3O[C@H]2[C@H]1Cc1ccc(O)cc1 | 5.2 µM | 26.8 µM | Non-Toxic | 14.7 µM
